Data: PubChem BioAssay (NCI)
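Five concentrations, 48 hours, 96-well plates. TGI is the concentration that stops growth completely.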

How the values were obtained:
Test in all cases: NCI anticancer screen, dose series, 48 h
DMS 273 small cell lung = tested on: DMS 273 small cell lung
MOLT-4 leukemia = tested on: MOLT-4 leukemia
OVCAR-4 ovarian = tested on: OVCAR-4 ovarian
HOP-62 NSCLC = tested on: HOP-62 NSCLC
OVCAR-5 ovarian = tested on: OVCAR-5 ovarian
786-0 renal = tested on: 786-0 renal
NCI-H460 lung = tested on: NCI-H460 lung
UO-31 renal = tested on: UO-31 renal
HCC-2998 colon = tested on: HCC-2998 colon
HCT-116 colon = tested on: HCT-116 colon
NCI-H23 lung = tested on: NCI-H23 lung
RPMI-8226 leukemia = tested on: RPMI-8226 leukemia
SK-OV-3 ovarian = tested on: SK-OV-3 ovarian
ACHN renal = tested on: ACHN renal
HT29 colon = tested on: HT29 colon
SK-MEL-28 melanoma = tested on: SK-MEL-28 melanoma
SK-MEL-5 melanoma = tested on: SK-MEL-5 melanoma
COLO 205 colon = tested on: COLO 205 colon
UACC-257 melanoma = tested on: UACC-257 melanoma
HL-60(TB) leukemia = tested on: HL-60(TB) leukemia
M19-MEL melanoma = tested on: M19-MEL melanoma
XF 498 CNS = tested on: XF 498 CNS
U251 CNS = tested on: U251 CNS
SF-539 CNS = tested on: SF-539 CNS
A549 NSCLC = tested on: A549 NSCLC
TK-10 renal = tested on: TK-10 renal
UACC-62 melanoma = tested on: UACC-62 melanoma
SF-268 CNS = tested on: SF-268 CNS
SN12C renal = tested on: SN12C renal
SNB-78 CNS = tested on: SNB-78 CNS
LXFL 529 NSCLC = tested on: LXFL 529 NSCLC
M14 melanoma = tested on: M14 melanoma
NCI-H226 lung = tested on: NCI-H226 lung
DMS 114 small cell lung = tested on: DMS 114 small cell lung
EKVX NSCLC = tested on: EKVX NSCLC
HCT-15 colon = tested on: HCT-15 colon
SNB-75 CNS = tested on: SNB-75 CNS
OVCAR-8 ovarian = tested on: OVCAR-8 ovarian
DLD-1 colon = tested on: DLD-1 colon
K-562 leukemia = tested on: K-562 leukemia
CCRF-CEM leukemia = tested on: CCRF-CEM leukemia
SNB-19 CNS = tested on: SNB-19 CNS
LOX IMVI melanoma = tested on: LOX IMVI melanoma
SR leukemia = tested on: SR leukemia
RXF 393 renal = tested on: RXF 393 renal
IGROV1 ovarian = tested on: IGROV1 ovarian
SW-620 colon = tested on: SW-620 colon
SF-295 CNS = tested on: SF-295 CNS
KM12 colon = tested on: KM12 colon
SK-MEL-2 melanoma = tested on: SK-MEL-2 melanoma
MALME-3M melanoma = tested on: MALME-3M melanoma
A498 renal = tested on: A498 renal
CAKI-1 renal = tested on: CAKI-1 renal
NCI-H522 lung = tested on: NCI-H522 lung
KM20L2 colon = tested on: KM20L2 colon
OVCAR-3 ovarian = tested on: OVCAR-3 ovarian
HOP-92 NSCLC = tested on: HOP-92 NSCLC

Measured: TGI

CCN(CC)CCC(=O)NC1c2ccccc2Oc2c(C)cccc21 (stereo not given)
> 100 µM: DMS 273 small cell lung | MOLT-4 leukemia | OVCAR-4 ovarian | HOP-62 NSCLC | OVCAR-5 ovarian | 786-0 renal | NCI-H460 lung | UO-31 renal | HCC-2998 colon | HCT-116 colon | NCI-H23 lung | RPMI-8226 leukemia | SK-OV-3 ovarian | ACHN renal | HT29 colon | SK-MEL-28 melanoma | SK-MEL-5 melanoma | COLO 205 colon | UACC-257 melanoma | HL-60(TB) leukemia | M19-MEL melanoma | XF 498 CNS | U251 CNS | SF-539 CNS | A549 NSCLC | TK-10 renal | UACC-62 melanoma | SF-268 CNS | SN12C renal | SNB-78 CNS | LXFL 529 NSCLC | M14 melanoma | NCI-H226 lung | DMS 114 small cell lung | EKVX NSCLC | HCT-15 colon | SNB-75 CNS | OVCAR-8 ovarian | DLD-1 colon | K-562 leukemia | CCRF-CEM leukemia | SNB-19 CNS | LOX IMVI melanoma | SR leukemia | RXF 393 renal | IGROV1 ovarian | SW-620 colon

Cn1c(=O)c2nc(N3CCOCC3)cnc2n(C)c1=O
> 100 µM: DMS 273 small cell lung | MOLT-4 leukemia | SF-295 CNS | OVCAR-4 ovarian | HOP-62 NSCLC | KM12 colon | OVCAR-5 ovarian | NCI-H460 lung | UO-31 renal | HCC-2998 colon | SK-MEL-2 melanoma | HCT-116 colon | MALME-3M melanoma | NCI-H23 lung | RPMI-8226 leukemia | SK-OV-3 ovarian | ACHN renal | HT29 colon | SK-MEL-28 melanoma | SK-MEL-5 melanoma | COLO 205 colon | UACC-257 melanoma | HL-60(TB) leukemia | M19-MEL melanoma | A498 renal | XF 498 CNS | U251 CNS | SF-539 CNS | CAKI-1 renal | A549 NSCLC | TK-10 renal | UACC-62 melanoma | NCI-H522 lung | SF-268 CNS | KM20L2 colon | SN12C renal | SNB-78 CNS | LXFL 529 NSCLC | M14 melanoma | DMS 114 small cell lung | EKVX NSCLC | HCT-15 colon | SNB-75 CNS | OVCAR-8 ovarian | DLD-1 colon | OVCAR-3 ovarian | K-562 leukemia | CCRF-CEM leukemia | SNB-19 CNS | HOP-92 NSCLC | SR leukemia | IGROV1 ovarian | SW-620 colon
